According to patent US9643933B2, “Compounds useful as antibiotic tolerance inhibitors” (priority 2013, dated 2017):
Where two headings read alike, the source gives them in different places.

Tests used:
[1] = test system: PQS; assay: PQS Inhibition Assay (24 Hour Incubation); format: cell-based, P. aeruginosa PA14 wild-type strain
Procedure: Test compounds are dissolved in DMSO at 10 mM and stored at −20° C. until needed. Seven test concentrations from 0.0032 micromolar to 31.6 micromolar are used for each compound. P. aeruginosa PA14 wild-type strain is inoculated into 5 mL LB broth in a 15-mL sterile glass culture tube and incubated overnight at 37° C. under shaking (˜240 rpm). The overnight culture is then diluted in LB Broth to give an OD600=0.04 (T0 culture). Colony Forming Units (CFU)/mL of the overnight culture and T0 culture are determined by a series of 1:10 serial dilutions in sterile saline. 4×20 μL of each dilution is seeded on LB agar plates and incubated at 35±2° C. for 20 hours. CFU/mL is determined from the dilution that gives 2 to 50 colonies/20 μL.
For concentration response curve (CRC) experiments, internal standard (2-((5-nitro-1H-indol-2-yl)thio)-N-(4-phenoxyphenyl)acetamide)) and test compounds are serially diluted in DMSO to give 200 times of each final concentration (0.5% DMSO final), and 1 μL/well is dispensed in duplicate into 2-mL wells of a 96 well deep well plate. 200 μL/well of T0 culture is added to each internal standard/test compound well used to determine PQS control level. Wells containing only LB broth (blank wells) are also included in the plate.
The plate is sealed and incubated at 37° C. for 24 hours under shaking (˜700 rpm) using a microtiter shaker. At the end of the incubation period, 150 μL/well of the deep well plate culture are transferred in a new non-sterile plate, and 150 μL/well of methanol containing tetra-deuterated PQS (D4-PQS) and 2% acetic acid are added to each well. The plate is sealed, shaken at high speed for 5 minutes and centrifuged at 4,000 g for 40 minutes at room temperature. 100 μL/well of the supernatant is then transferred to glass vials (vials crimp 0.2 mL) and kept at 4° C. until LC-MS/MS analysis.
PQSs quantification is carried out by analyzing samples in discrete batches together with spiked standards and blank samples.
Calibration curves are constructed from PQS standards, and respective deuterated PQS is used as an Internal Standards (IS) to calculate the concentration of analytes in the sample and improve the precision of the assay. The back-calculated concentrations of the calibration standards from the calibration curve shall be within ±20% of the nominal values, the range of the analytical method is determined, and the lower and upper limit of quantification specified.
Liquid chromatography separations are performed using an Agilent HP1100 system (Agilent Technologies) coupled with a CTC PAL Autosampler (CTC Analytics AG). Chromatographic retention is obtained using a monolithic column (Chromolith® RP-18, 50×4.6 mm). The solvent system consists of water containing 0.1% (v/v) formic acid (A) and acetonitrile containing 0.1% (v/v) formic acid (B). The gradient elution profile is chosen as follows: 0 min: 70% A (1500 μL/min), 0.3 min: 70% A (1500 μL/min), 1.3 min: 5% A (2500 μL/min), 1.6 min: 5% A (2500 μL/min).
The MS/MS analysis is performed with an API4000 series mass spectrometer (AB Sciex™) operating in Multiple Reaction Monitoring (MRM) mode and equipped with a TIS ion source. The specific ions monitored are PQS (m/z 260→m/z 175) and D4-PQS (m/z 264→m/z 179). The computer systems used in this study to acquire and quantify data may be an Analyst™ v1.5.
PQS in the presence of different concentrations of test compound are expressed as percentage of inhibition of the basal level in control samples. Curve fitting and IC50 estimations are carried out using a four parameter logistic model using GraphPad Prism v.5 program.

[2] = test system: Pyocyanin; assay: Pyocyanin Inhibition Assay; format: cell-based, P. aeruginosa, strain PA14
Procedure, shortened: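 P. aeruginosa PA14 at OD600=0.04 in LB grown 24 h at 37° C with shaking alongside compound (0.0032-31.6 micromolar, seven points, 0.5% DMSO final). Pyocyanin in supernatant quantified from A690 (ε 4,310 M^−1 cm^−1); % inhibition versus untreated culture, IC50 by four-parameter logistic fit.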

[3] = Pseudomonas aeruginosa, PA14, 24 h, read-out: PQS (24 hr) IC50 (μM)
[4] = Pseudomonas aeruginosa, PA14, 24 h, read-out: Pyocyanin Inhibition No. IC50 (μM)

Row | Compound | IC50 [1, 3] | IC50 [2, 4] | IC50 ([1]; P. aeruginosa PA14 culture, 24 hours incubation, PQS by LC-MS/MS, read-out: PQS (24 hr) IC50) | IC50 ([2]; P. aeruginosa PA14 culture, 24 hours at 37° C., pyocyanin in supernatant by absorbance at 690 nm, read-out: Pyocyanin Inhibition No. IC50)
1 | N#Cc1ccc(NC(=O)CSc2nc3cc(C(F)(F)F)ccc3[nH]2)cc1 [Compound 56] | < 1 µM | < 0.1 µM | – | –
2 | N#Cc1ccc(NC(=O)CSc2nc3cc(F)ccc3[nH]2)cc1 [Compound 57] | 1 to 5 µM | 0.1 to 1 µM | – | –
3 | 2-((5-chloro-1H-benzo[d]imidazol-2-yl)thio)-N-(4-(pyrimidin-5-yloxy)phenyl)acetamide [Compound 79] | – | – | < 1 µM | < 0.1 µM
4 | O=C(CCc1nc2ccc(Cl)cc2[nH]1)Nc1ccc(Oc2cccnc2)cc1 [Compound 152, 3-(5-chloro-1H-benzo[d]imidazol-2-yl)-N-(4-(pyridin-3-yloxy)phenyl)propanamide] | 1 to 5 µM | 0.1 to 1 µM | – | –
5 | O=C(CSc1nc2cc(Cl)ccc2[nH]1)Nc1ccc(Oc2cccnc2)cc1 [Compound 77, 2-((5-chloro-1H-benzo[d]imidazol-2-yl)thio)-N-(4-(pyridin-3-yloxy)phenyl)acetamide] | < 1 µM | < 0.1 µM | – | –
6 | O=C(CSc1nc2ccc(-n3cccn3)cc2[nH]1)Nc1ccc(Cl)cc1 [Compound 116] | > 10 µM | 0.1 to 1 µM | – | –
7 | O=C(CCc1nc2ccc(Cl)cc2s1)Nc1ccc(Oc2cccnc2)cc1 [Compound 86, 3-(6-Chlorobenzo[d]thiazol-2-yl)-N-(4-(pyridin-3-yloxy)phenyl)propanamide] | > 10 µM | 0.1 to 1 µM | – | –
8 | N#Cc1ccc(NC(=O)CSc2nc3cc(Cl)ccc3[nH]2)cc1 [Compound 125] | < 1 µM | < 0.1 µM | – | –
9 | COc1ccc(NC(=O)CSc2nc3ccc(Cl)cc3[nH]2)cc1 [Compound 140] | 5 to 10 µM | 0.1 to 1 µM | – | –
10 | O=C(CNc1nc2cc(Cl)ccc2s1)Nc1ccc(Oc2cccnc2)cc1 [Compound 71, 2-((5-chlorobenzo[d]thiazol-2-yl)amino)-N-(4-(pyridin-3-yloxy)phenyl)acetamide] | 5 to 10 µM | 0.1 to 1 µM | – | –
11 | N#Cc1ccc(NC(=O)CSc2nc3ccc(C#N)cc3[nH]2)cc1 [Compound 93] | < 1 µM | 0.1 to 1 µM | – | –
12 | O=C(CSc1nc2cc(Cl)ccc2[nH]1)Nc1ccc(Oc2cccnc2Cl)cc1 [Compound 83, 2-((5-chloro-1H-benzo[d]imidazol-2-yl)thio)-N-(4-((2-chloropyridin-3-yl)oxy)phenyl)acetamide] | < 1 µM | < 0.1 µM | – | –
13 | O=C(CNc1nc2cc(Cl)ccc2o1)Nc1ccc(Oc2cccnc2)cc1 [Compound 74, 2-((5-chlorobenzo[d]oxazol-2-yl)amino)-N-(4-(pyridin-3-yloxy)phenyl)acetamide] | 1 to 5 µM | 0.1 to 1 µM | – | –
14 | O=C(CSc1nc2ccc(Cl)cc2[nH]1)Nc1ccc(Cl)cc1 [Compound 137] | 1 to 5 µM | 0.1 to 1 µM | – | –
15 | O=C(CSc1nc2cc(Cl)ccc2[nH]1)Nc1ccc(Oc2ccc(Cl)nc2)cc1 [Compound 84, 2-((5-chloro-1H-benzo[d]imidazol-2-yl)thio)-N-(4-((6-chloropyridin-3-yl)oxy)phenyl)acetamide] | 1 to 5 µM | < 0.1 µM | – | –
16 | O=C(CSc1nc2cc(F)ccc2[nH]1)Nc1ccc(Cl)cc1 [Compound 110] | 5 to 10 µM | 0.1 to 1 µM | – | –
17 | O=C(CCc1nc2cc(Cl)ccc2s1)Nc1ccc(Oc2cccnc2)cc1 [Compound 85, 3-(5-chlorobenzo[d]thiazol-2-yl)-N-(4-(pyridin-3-yloxy)phenyl)propanamide] | > 10 µM | 0.1 to 1 µM | – | –
18 | N#Cc1ccc(NC(=O)CSc2nc3cc(Cl)ccc3[nH]2)cc1Cl [Compound 142] | < 1 µM | 0.1 to 1 µM | – | –
19 | O=C(CSc1nc2cc(F)c(F)cc2[nH]1)Nc1ccc(Br)cc1 [Compound 126] | > 10 µM | 0.1 to 1 µM | – | –
20 | O=C(CSc1nc2ccc(Br)cc2[nH]1)Nc1ccc(Cl)cc1 [Compound 145] | > 10 µM | 0.1 to 1 µM | – | –
21 | N#Cc1ccc2nc(SCC(=O)Nc3ccc(Cl)cc3)[nH]c2c1 [Compound 94] | 1 to 5 µM | 0.1 to 1 µM | – | –
22 | N#Cc1ccc(NC(=O)CSc2nc3cc(OC(F)F)ccc3[nH]2)cc1 [Compound 104] | 5 to 10 µM | 0.1 to 1 µM | – | –
23 | O=C(CSc1nc2cc(C(F)(F)F)ccc2[nH]1)Nc1ccc(Cl)cc1 [Compound 105] | 1 to 5 µM | 0.1 to 1 µM | – | –
24 | N#Cc1ccc(NC(=O)CSc2nc3cc(Br)ccc3[nH]2)cc1 [Compound 96] | < 1 µM | < 0.1 µM | – | –
25 | N#Cc1ccc(NC(=O)CSc2nc3cc(Br)ccc3o2)cc1 [Compound 147] | 1 to 5 µM | 0.1 to 1 µM | – | –
